Assay results published in PubChem BioAssay AID2060497 (Molecular Pharmacology Branch, DTP, NCI, 2025).

Test system: 317291-083-R-J1-PDC complex spheroids, viability
Test: Anticancer human tumor 317291-083-R-J1-PDC patient-derived soft tissue sarcoma cell line growth inhibition [GQUAD]
Settings: for IC50: curve of first compound; for viability, T/C: stronger effect = lower value; active = viability on the fitted dose curve at most 10% of control; inactive = the rest
Procedure, shortened: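 Viability of tumor cells grown as complex spheroids with endothelial and stromal cells, exposed to drug combinations. Top concentration at or near clinical Cmax (else 10 microM), diluted in half-log increments.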

[1] = second compound 0.0316 µM, first compound 0.0316 µM
[2] = second compound 0.0316 µM, first compound 0.1 µM
[3] = second compound 0.0316 µM, first compound 0.316 µM
[4] = second compound 0.0316 µM, first compound 1 µM
[5] = second compound 0.0316 µM, first compound 3.16 µM
[6] = second compound 0.0316 µM, first compound 10 µM
[7] = second compound 0.1 µM, first compound 0.0316 µM
[8] = second compound 0.1 µM, first compound 0.1 µM
[9] = second compound 0.1 µM, first compound 0.316 µM
[10] = second compound 0.1 µM, first compound 1 µM
[11] = second compound 0.1 µM, first compound 3.16 µM
[12] = second compound 0.1 µM, first compound 10 µM
[13] = second compound 0.316 µM, first compound 0.0316 µM
[14] = second compound 0.316 µM, first compound 0.1 µM
[15] = second compound 0.316 µM, first compound 0.316 µM
[16] = second compound 0.316 µM, first compound 1 µM
[17] = second compound 0.316 µM, first compound 3.16 µM
[18] = second compound 0.316 µM, first compound 10 µM
[19] = second compound 1 µM, first compound 0.0316 µM
[20] = second compound 1 µM, first compound 0.1 µM
[21] = second compound 1 µM, first compound 0.316 µM
[22] = second compound 1 µM, first compound 1 µM
[23] = second compound 1 µM, first compound 3.16 µM
[24] = second compound 1 µM, first compound 10 µM
[25] = second compound 3.16 µM, first compound 0.0316 µM
[26] = second compound 3.16 µM, first compound 0.1 µM
[27] = second compound 3.16 µM, first compound 0.316 µM
[28] = second compound 3.16 µM, first compound 1 µM
[29] = second compound 3.16 µM, first compound 3.16 µM
[30] = second compound 3.16 µM, first compound 10 µM
[31] = second compound 10 µM, first compound 0.0316 µM
[32] = second compound 10 µM, first compound 0.1 µM
[33] = second compound 10 µM, first compound 0.316 µM
[34] = second compound 10 µM, first compound 1 µM
[35] = second compound 10 µM, first compound 3.16 µM
[36] = second compound 10 µM, first compound 10 µM
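Also: spheroids exposed to compounds for one week before readout.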
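For viability, T/C in this document: percent viability relative to DMSO vehicle wells taken as 100%.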

COc1cccc2c1C(=O)c1c(O)c3c(c(O)c1C2=O)CC(O)(C(=O)CO)CC3OC1CC(N)C(O)C(C)O1 (stereo unspecified) + Cc1[nH]c2ccc(F)cc2c1-c1nc2c3cccnc3c3ncccc3c2[nH]1
active: viability, T/C [4] 9.79% | viability, T/C [5] 0.88% | viability, T/C [6] 4.17% | viability, T/C [10] 8.91% | viability, T/C [11] 1.29% | viability, T/C [12] 2.78% | viability, T/C [16] 13.5% | viability, T/C [17] 1.55% | viability, T/C [18] 3.24% | viability, T/C [22] 11.1% | viability, T/C [23] 1.17% | viability, T/C [24] 1.78% | viability, T/C [28] 16.5% | viability, T/C [29] 1.5% | viability, T/C [30] 1.98% | viability, T/C [34] 8.13% | viability, T/C [35] 1.49% | viability, T/C [36] 2.3%
0.0655 µM: IC50 (second compound 3.16 µM)
0.0721 µM: IC50 (second compound 0.1 µM)
0.135 µM: IC50 (second compound 1 µM)
0.0652 µM: IC50 (second compound 10 µM)
0.0774 µM: IC50 (second compound 0.316 µM)
0.081 µM: IC50 (second compound 0.0316 µM)
inactive: viability, T/C [1] 112% | viability, T/C [2] 31.8% | viability, T/C [3] 21.9% | viability, T/C [7] 80.3% | viability, T/C [8] 35.4% | viability, T/C [9] 21.6% | viability, T/C [13] 88.3% | viability, T/C [14] 36.5% | viability, T/C [15] 19.7% | viability, T/C [19] 89.8% | viability, T/C [20] 60.3% | viability, T/C [21] 21.3% | viability, T/C [25] 77% | viability, T/C [26] 31.2% | viability, T/C [27] 18% | viability, T/C [31] 68.3% | viability, T/C [32] 39.3% | viability, T/C [33] 16.9%

Nc1ccn(C2OC(CO)C(O)C2(F)F)c(=O)n1 (stereo unspecified) + Cc1[nH]c2ccc(F)cc2c1-c1nc2c3cccnc3c3ncccc3c2[nH]1
0.0448 µM: IC50 (second compound 0.0316 µM)
0.0351 µM: IC50 (second compound 3.16 µM)
0.0328 µM: IC50 (second compound 0.316 µM)
< 0.0316 µM: IC50 (second compound 10 µM)
0.0428 µM: IC50 (second compound 0.1 µM)
0.0371 µM: IC50 (second compound 1 µM)
inactive: viability, T/C [1] 63% | viability, T/C [2] 20.3% | viability, T/C [3] 11.9% | viability, T/C [4] 11% | viability, T/C [5] 11.8% | viability, T/C [6] 8.15% | viability, T/C [7] 57.9% | viability, T/C [8] 27.4% | viability, T/C [9] 14.8% | viability, T/C [10] 12.3% | viability, T/C [11] 11% | viability, T/C [12] 9.19% | viability, T/C [13] 51.2% | viability, T/C [14] 16.1% | viability, T/C [15] 13.1% | viability, T/C [16] 16.2% | viability, T/C [17] 10.3% | viability, T/C [18] 8.34% | viability, T/C [19] 55.6% | viability, T/C [20] 15.8% | viability, T/C [25] 52.8% | viability, T/C [26] 22.5% | viability, T/C [27] 12% | viability, T/C [28] 12% | viability, T/C [29] 11.2% | viability, T/C [30] 10.7% | viability, T/C [31] 40.3% | viability, T/C [32] 13.2% | viability, T/C [33] 10.2% | viability, T/C [34] 8.15% | viability, T/C [35] 13.3% | viability, T/C [36] 9.1%
active: viability, T/C [21] 10.5% | viability, T/C [22] 9.19% | viability, T/C [23] 9.71% | viability, T/C [24] 8.18%

O=c1[nH]cc(F)c(=O)[nH]1 + Cc1[nH]c2ccc(F)cc2c1-c1nc2c3cccnc3c3ncccc3c2[nH]1
2.71 µM: IC50 (second compound 3.16 µM)
1.77 µM: IC50 (second compound 0.316 µM)
1.68 µM: IC50 (second compound 0.1 µM)
1.6 µM: IC50 (second compound 1 µM)
5.34 µM: IC50 (second compound 0.0316 µM)
0.823 µM: IC50 (second compound 10 µM)
inactive: viability, T/C [1] 118% | viability, T/C [2] 117% | viability, T/C [3] 116% | viability, T/C [4] 69.5% | viability, T/C [5] 73.3% | viability, T/C [6] 31.8% | viability, T/C [7] 110% | viability, T/C [8] 106% | viability, T/C [9] 96.7% | viability, T/C [10] 62.2% | viability, T/C [11] 34.7% | viability, T/C [12] 30.6% | viability, T/C [13] 108% | viability, T/C [14] 104% | viability, T/C [15] 89.1% | viability, T/C [16] 63.6% | viability, T/C [17] 35.4% | viability, T/C [18] 31.8% | viability, T/C [19] 93.9% | viability, T/C [20] 102% | viability, T/C [21] 102% | viability, T/C [22] 60.9% | viability, T/C [23] 36.5% | viability, T/C [24] 31.9% | viability, T/C [25] 99.3% | viability, T/C [26] 86.6% | viability, T/C [27] 79.2% | viability, T/C [28] 45.2% | viability, T/C [29] 64.3% | viability, T/C [30] 30.2% | viability, T/C [31] 73.6% | viability, T/C [32] 75.9% | viability, T/C [33] 81.5% | viability, T/C [34] 44.5% | viability, T/C [35] 33% | viability, T/C [36] 27.4%
